As a reminder, the LD50 is the dose expected to kill half of the subjects tested. Low values mean a more toxic substance, high ones a less toxic substance.

Type in all cases: in vivo
One data set deals with anesthetized cat. The data set can be described thus: Effect on blood pressure and positive inotropic activity in the anesthetized cat. The conditions noted are these: 2.0 mg/kg i.v., average value, at least 3 cats. As to the method:
1. Determination of the effect on blood pressure and of the positive inotropic activity in the anesthetized cat
The test was performed on cats which were anesthetized with pentobarbital sodium (40 mg/kg i.p.). The animals breathed spontaneously. The arterial blood pressure was measured in the aorta abdominalis by a Statham pressure transducer (P 23 Dc). The positive inotropic effect was determined by measuring the pressure in the left ventricle by means of a catheter tip manometer (Millar PC 360 A). The contractility parameter (dp/dtmax) was registered by means of an analog differentiating circuit.
The test compound was injected into the vena femoralis. Physiological sodium chloride solution or polydiol 200 was used as solvent. Each substance was tested in at least 3 cats, dose 2 mg/kg i.v.

Data set [1] can be described thus: Acute toxicity in white mice after oral administration. The conditions noted are these: mouse, in vivo, single oral dose 300 mg/kg, observation time 14 days. Here is the method: (§1) The acute toxicity was determined in white mice after oral administration of a single dose of 300 mg/kg (observation time: 14 days).
The subject of a further data set is white mice. The description is as above. The conditions noted are these: single oral dose 300 mg/kg, observation time 14 days. As to the method:
as §1

SMILES strings stand for the structures.

For the compound `COc1ccc(-c2nc3ncccc3[nH]2)c(OCC[S+]([O-])c2ccccc2)c1` (centres unmarked) [A, 2-[2-(2-Phenylsulfinyl-ethoxy)-4-methoxyphenyl]imidazo[4,5-b]pyridine], the “Change in blood pressure, second value of the printed pair (diastolic, not labelled in the patent)” value (from here on “Change … (diastolic, not labelled in the patent)”) in the data set on anesthetized cat is 20 mmHg.

`COc1ccc(-c2nc3ncccc3[nH]2)c(OCC[S+]([O-])c2ccc(Cl)cc2)c1` (centres unmarked) [B, 2-{2-[2-(4-Chlorophenylsulfinyl)-ethoxy]-4-methoxyphenyl}-imidazo-[4,5-b]pyridine] gave an LD50 at 336 h in data set [1] of over 300 mg/kg. The animals died in the data set with white mice is given as 0 out of 6. Also, the “Change … (diastolic, not labelled in the patent)” value in the data set with anesthetized cat was 42 mmHg.

Take `COc1ccc(-c2nc3ncccc3[nH]2)c(OCC[S+]([O-])c2ccc(C)cc2)c1` (centres unmarked) [C, 2-{2-[2-(4-Methylphenylsulfinyl)-ethoxy]-4-methoxyphenyl}-imidazo[4,5-b]pyridine]: the LD50 at 336 h in data set [1] was over 300 mg/kg. In the data set on white mice, the animals died is listed as 0 out of 6. Moreover, in the data set with anesthetized cat, the “Change … (diastolic, not labelled in the patent)” value was 45 mmHg.

`COc1ccc(-c2nc3ncccc3[nH]2)c(OCC[S+]([O-])c2cc(OC)c(OC)cc2C)c1` (centres unmarked) [D, 2-{2-[2-(2-Methyl-4,5-dimethoxyphenylsulfinyl)-ethoxy]-4-methoxyphenyl}-imidazo[4,5-b]pyridine]: the 50% lethal dose (LD50) at 336 h in data set [1] is over 300 mg/kg. The animals died in the data set on white mice is 0 out of 6. Moreover, the “Change … (diastolic, not labelled in the patent)” value with anesthetized cat worked out at 5 mmHg.

Take `COc1ccc(-c2nc3ncccc3[nH]2)c(OCC[S+]([O-])c2ccc([N+](=O)[O-])cc2)c1` (centres unmarked) [E, 2-{2-[2-(4-Nitrophenylsulfinyl)-ethoxy]-4-methoxyphenyl}-imidazo[4,5-b]pyridine]: the “Change … (diastolic, not labelled in the patent)” value in the data set with anesthetized cat is listed as 32 mmHg.

(Values after patent US4327100A, “2-(Alkoxy-phenyl)-imidazo(4,5-b)pyridines and salts thereof” (Boehringer Ingelheim GmbH, priority 1979, dated 1982).)
